These results are taken from article PMC10896643 (Journal of medicinal chemistry, 2023).

“Also recorded” adds a separate entry of the source.

For one data set, the target named is hA2AAR (Homo sapiens, UniProt P29274). The experiment in a line: cAMP functional assay in CHO-A2A cells. The following applies: 10 μM.
A further data set addresses T1, hA3AR (Homo sapiens, UniProt P0DMS8).
T1 sequence (P0DMS8 1-318): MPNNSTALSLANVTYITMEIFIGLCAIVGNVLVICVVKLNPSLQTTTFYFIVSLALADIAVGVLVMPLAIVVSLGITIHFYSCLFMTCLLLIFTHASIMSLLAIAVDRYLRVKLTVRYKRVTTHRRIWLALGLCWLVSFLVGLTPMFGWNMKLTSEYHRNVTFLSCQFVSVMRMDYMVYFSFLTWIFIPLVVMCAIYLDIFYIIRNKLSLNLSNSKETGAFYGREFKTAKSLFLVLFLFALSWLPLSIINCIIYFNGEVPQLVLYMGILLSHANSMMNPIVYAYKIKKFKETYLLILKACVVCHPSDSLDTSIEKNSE
The experiment in a line: cAMP functional assay in CHO-A3 cells. The following applies: 10 μM.

Another data set addresses CYP2D6 (Homo sapiens, UniProt P10635). In words: CYP isoform inhibition. The format is in vitro ADME.
The target in the next data set is T2, CYP1A2 (Homo sapiens, UniProt P05177).
T2 sequence (P05177 1-516): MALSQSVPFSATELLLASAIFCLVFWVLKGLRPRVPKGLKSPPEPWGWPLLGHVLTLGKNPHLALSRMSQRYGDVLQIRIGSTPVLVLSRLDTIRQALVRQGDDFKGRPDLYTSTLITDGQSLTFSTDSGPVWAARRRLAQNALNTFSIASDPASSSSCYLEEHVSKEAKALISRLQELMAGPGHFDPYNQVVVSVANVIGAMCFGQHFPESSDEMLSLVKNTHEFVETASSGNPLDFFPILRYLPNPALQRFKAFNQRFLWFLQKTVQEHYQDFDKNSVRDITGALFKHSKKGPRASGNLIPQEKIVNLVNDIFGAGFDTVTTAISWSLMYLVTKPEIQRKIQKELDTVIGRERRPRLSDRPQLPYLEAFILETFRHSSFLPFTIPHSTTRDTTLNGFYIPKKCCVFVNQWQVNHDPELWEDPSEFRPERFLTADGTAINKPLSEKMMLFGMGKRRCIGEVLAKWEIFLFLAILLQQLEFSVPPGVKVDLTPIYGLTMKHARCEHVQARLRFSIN
The experiment in a line: CYP isoform inhibition. It is filed as in vitro ADME.

Another data set addresses CYP2C9 (Homo sapiens, UniProt P11712). The experiment in a line: CYP isoform inhibition. The format is in vitro ADME.
The target in the next data set is CYP3A4 (Homo sapiens, UniProt P08684). In words: CYP isoform inhibition. The format is in vitro ADME.
The next data set addresses CYP2C19 (Homo sapiens, UniProt P33261). In words: CYP isoform inhibition. It is filed as in vitro ADME.
The target in the next data set is hERG K+ channels (Homo sapiens, UniProt Q12809). The experiment in a line: hERG K+ channel inhibition. The format is in vitro ADME.
A further data set has as its system 4T1-Luc tumors. The experiment in a line: In vivo antitumor activity in 4T1-Luc tumor-bearing mice. Conditions: 10 mg/kg i.p., alone or with anti-PD-L1.

Chain of CYP2C9 (P11712 whole entry, species assumed, canonical isoform): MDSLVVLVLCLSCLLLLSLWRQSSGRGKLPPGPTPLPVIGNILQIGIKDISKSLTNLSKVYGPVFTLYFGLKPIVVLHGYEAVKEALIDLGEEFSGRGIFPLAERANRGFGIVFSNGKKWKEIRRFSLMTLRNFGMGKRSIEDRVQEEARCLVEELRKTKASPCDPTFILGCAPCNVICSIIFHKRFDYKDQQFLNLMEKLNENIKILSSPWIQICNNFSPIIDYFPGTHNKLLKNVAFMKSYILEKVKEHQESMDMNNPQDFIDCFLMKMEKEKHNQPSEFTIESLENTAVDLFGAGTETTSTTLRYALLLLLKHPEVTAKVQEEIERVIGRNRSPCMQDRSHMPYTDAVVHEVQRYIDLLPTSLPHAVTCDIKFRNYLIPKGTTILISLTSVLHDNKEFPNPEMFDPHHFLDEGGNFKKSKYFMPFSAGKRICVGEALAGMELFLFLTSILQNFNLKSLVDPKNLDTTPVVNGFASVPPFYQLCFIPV
Chain of CYP3A4 (P08684 whole entry, species assumed, canonical isoform): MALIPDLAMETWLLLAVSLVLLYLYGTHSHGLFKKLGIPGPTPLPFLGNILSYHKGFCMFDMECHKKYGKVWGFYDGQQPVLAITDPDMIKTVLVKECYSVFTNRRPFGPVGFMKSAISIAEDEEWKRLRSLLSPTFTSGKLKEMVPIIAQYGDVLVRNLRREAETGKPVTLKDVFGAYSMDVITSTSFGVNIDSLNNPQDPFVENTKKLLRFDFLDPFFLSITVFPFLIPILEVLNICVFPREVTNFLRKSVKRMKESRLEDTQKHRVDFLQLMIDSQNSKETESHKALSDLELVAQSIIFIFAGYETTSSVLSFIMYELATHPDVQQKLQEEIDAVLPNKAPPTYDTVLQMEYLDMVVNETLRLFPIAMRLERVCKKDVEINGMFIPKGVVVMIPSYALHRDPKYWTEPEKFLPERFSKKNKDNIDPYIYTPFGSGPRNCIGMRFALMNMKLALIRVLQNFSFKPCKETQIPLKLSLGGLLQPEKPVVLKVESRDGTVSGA
Chain of CYP2D6 (P10635 whole entry, species assumed, canonical isoform): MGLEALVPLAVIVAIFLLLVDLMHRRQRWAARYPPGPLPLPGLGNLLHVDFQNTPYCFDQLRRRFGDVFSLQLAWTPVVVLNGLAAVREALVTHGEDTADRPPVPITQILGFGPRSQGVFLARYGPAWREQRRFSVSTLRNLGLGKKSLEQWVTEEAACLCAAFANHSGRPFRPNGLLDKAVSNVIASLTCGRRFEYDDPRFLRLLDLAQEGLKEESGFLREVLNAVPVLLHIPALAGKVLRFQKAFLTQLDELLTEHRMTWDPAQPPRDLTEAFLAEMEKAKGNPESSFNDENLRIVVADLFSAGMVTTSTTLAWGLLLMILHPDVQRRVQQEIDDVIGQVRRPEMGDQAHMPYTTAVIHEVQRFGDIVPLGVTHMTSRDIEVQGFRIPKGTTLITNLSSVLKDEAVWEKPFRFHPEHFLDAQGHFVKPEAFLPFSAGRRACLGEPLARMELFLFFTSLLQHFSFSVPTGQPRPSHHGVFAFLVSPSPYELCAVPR
Chain of hERG K+ channels (Q12809 whole entry): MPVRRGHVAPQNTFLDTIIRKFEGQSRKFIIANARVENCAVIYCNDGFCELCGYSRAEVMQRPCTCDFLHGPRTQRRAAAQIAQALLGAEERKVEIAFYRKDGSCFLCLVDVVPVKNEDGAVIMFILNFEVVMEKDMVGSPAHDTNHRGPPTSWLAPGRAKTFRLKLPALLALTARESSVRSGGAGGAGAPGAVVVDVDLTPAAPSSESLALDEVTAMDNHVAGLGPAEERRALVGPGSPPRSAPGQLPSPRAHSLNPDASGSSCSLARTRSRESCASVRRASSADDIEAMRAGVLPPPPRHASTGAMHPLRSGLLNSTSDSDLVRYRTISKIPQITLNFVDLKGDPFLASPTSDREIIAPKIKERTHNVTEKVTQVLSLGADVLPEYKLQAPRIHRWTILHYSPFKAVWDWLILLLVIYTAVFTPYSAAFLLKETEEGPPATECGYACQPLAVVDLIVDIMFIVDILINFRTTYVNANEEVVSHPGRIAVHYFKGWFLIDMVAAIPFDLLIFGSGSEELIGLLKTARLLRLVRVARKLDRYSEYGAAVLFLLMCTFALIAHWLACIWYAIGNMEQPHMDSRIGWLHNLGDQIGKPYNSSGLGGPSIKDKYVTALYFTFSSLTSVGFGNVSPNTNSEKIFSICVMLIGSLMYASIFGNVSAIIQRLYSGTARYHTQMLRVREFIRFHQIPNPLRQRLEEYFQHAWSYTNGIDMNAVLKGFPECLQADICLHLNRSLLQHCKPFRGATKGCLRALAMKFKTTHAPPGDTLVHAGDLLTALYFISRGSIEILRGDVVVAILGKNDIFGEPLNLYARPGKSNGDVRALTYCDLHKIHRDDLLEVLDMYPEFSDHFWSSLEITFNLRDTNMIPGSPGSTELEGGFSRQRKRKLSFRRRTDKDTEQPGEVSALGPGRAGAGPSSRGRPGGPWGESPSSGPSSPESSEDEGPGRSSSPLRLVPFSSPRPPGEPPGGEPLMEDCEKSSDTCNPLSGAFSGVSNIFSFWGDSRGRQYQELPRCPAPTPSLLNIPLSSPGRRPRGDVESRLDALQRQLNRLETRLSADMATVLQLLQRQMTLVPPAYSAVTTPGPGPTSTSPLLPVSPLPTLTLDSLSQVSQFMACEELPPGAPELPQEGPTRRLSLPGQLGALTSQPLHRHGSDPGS
Chain of CYP2C19 (P33261 whole entry, species assumed, canonical isoform): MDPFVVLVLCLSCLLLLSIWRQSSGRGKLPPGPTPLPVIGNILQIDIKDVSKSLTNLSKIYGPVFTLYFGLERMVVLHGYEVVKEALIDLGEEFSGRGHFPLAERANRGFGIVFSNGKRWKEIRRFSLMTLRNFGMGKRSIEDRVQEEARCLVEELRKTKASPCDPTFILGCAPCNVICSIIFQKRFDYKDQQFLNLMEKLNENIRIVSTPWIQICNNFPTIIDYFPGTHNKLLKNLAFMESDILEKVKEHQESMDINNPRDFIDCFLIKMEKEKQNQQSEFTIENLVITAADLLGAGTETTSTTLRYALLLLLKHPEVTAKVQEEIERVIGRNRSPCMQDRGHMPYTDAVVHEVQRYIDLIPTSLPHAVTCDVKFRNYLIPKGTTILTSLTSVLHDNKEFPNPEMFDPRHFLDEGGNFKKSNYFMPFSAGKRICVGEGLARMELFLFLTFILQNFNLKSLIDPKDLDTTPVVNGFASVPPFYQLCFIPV
Chain of hA2AAR (P29274 whole entry): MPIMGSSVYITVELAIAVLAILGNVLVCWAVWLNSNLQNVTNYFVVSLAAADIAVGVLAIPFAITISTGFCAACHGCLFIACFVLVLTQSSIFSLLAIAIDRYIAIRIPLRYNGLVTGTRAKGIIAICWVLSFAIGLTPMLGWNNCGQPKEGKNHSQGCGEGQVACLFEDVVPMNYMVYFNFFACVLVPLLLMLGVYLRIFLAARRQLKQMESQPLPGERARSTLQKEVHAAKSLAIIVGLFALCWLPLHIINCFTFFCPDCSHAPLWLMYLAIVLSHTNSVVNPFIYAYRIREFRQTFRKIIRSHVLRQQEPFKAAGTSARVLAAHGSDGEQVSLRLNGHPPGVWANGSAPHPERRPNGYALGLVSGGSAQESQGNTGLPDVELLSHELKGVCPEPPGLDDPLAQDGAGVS

In the case of `CCCCC#Cc1nc(N)c2nc(-c3ccco3)n([C@@H]3OC[C@@H](O)[C@H]3O)c2n1` [5a, (2R,3R,4R)-2-(6-Amino-8-(furan-2-yl)-2-(hex-1-yn-1-yl)-9H-purin-9-yl)tetrahydrofuran-3,4-diol], on hA2AAR, the “receptor activation / antagonism at hA2AAR” value is recorded as “no receptor activation”. Moreover, the “hA3AR activation” value at hA3AR is recorded as “inhibited hA3AR activation”.

Regarding `CCCCC#Cc1nc(N)c2nc(-c3cccs3)n([C@@H]3OC[C@@H](O)[C@H]3O)c2n1` [5d, (2R,3R,4R)-2-(6-Amino-2-(hex-1-yn-1-yl)-8-(thiophen-2-yl)-9H-purin-9-yl)tetrahydrofuran-3,4-diol], the CYP2D6 inhibition entry at CYP2D6 is recorded as “did not significantly inhibit”. Also, the CYP1A2 inhibition result on CYP1A2 is recorded as “did not significantly inhibit”. Besides, on CYP2C9, the CYP2C9 inhibition result was “did not significantly inhibit”. For the same compound, the CYP3A4 inhibition result on CYP3A4 is “did not significantly inhibit”. Besides, the CYP2C19 inhibition result on CYP2C19 was “did not significantly inhibit”. Further, at hERG K+ channels, the “hERG K+ channel inhibition” value is given as “did not significantly inhibit”. In addition, the “adverse effects / body weight loss” value with 4T1-Luc tumors is “No adverse effects or body weight loss; also recorded: without any adverse effects and body weight loss”.
